Among the data in patent publication US10344025B2, “GLS1 inhibitors for treating disease” (Board of Regents, The University of Texas System, priority 2014, dated 2019) are EC50 and IC50 values, retold here.

The test system of test [1] is A549 cells. In words: Proliferation Assay (A549 viability, Cell Titer Fluor, 72 hours). Type of test: cell-based. As to conditions: Homo sapiens, A549, 72 h. In short, it runs like this: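 A549 cells seeded at 1000 cells/well, rested 24 h, then exposed to compound in 0.5% DMSO for 72 h at 37 °C. Viability read by Cell Titer Fluor fluorescence; IC50 from four-parameter logistic fit.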

Test [2] concerns the target purified recombinant human GAC (GLS1) (Homo sapiens (Human), UniProt O94925). In words: GLS1 Enzymatic Activity Assay (dual-coupled enzymatic assay, resorufin/Amplex UltraRed readout).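 Further: glutamate from GAC coupled via glutamate oxidase and peroxidase to resorufin, read as fluorescence (ex 530, em 590 nm) kinetically or at 20 min, four-parameter logistic IC50 fit.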 It is filed as biochemical.

Molecules are shown by their SMILES.

Sequence of purified recombinant human GAC (GLS1) (O94925 other isoform, or with tags, fused parts or gaps): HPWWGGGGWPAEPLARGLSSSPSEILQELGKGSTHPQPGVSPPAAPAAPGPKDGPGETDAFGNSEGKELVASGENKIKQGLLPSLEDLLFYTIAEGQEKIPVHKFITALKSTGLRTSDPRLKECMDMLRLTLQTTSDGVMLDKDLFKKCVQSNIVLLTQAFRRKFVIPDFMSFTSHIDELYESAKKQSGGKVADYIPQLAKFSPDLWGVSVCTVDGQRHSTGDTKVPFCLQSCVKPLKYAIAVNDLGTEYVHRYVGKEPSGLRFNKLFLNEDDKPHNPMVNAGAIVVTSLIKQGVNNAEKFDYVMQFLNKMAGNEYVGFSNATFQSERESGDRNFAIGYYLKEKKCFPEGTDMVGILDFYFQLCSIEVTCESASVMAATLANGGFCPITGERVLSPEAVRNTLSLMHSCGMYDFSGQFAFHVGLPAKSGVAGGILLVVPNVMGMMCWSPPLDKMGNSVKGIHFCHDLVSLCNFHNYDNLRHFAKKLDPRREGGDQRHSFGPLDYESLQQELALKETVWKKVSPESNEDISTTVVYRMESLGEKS

Regarding `O=C(NCc1cccc(C(F)(F)F)c1)c1cn(CCC(F)Cn2cc(C(=O)NCc3cc(C(F)(F)F)ccn3)nn2)nn1` (centres unmarked) [Example 455, 1-{2-fluoro-4-[4-({[3-(trifluoromethyl)phenyl]methyl}carbamoyl)-1H-1,2,3-triazol-1-yl]butyl}-N-{[4-(trifluoromethyl)pyridin-2-yl]methyl}-1H-1,2,3-triazole-4-carboxamide], the EC50 in test [1] is under 100 nM. Moreover, the IC50 in test [2] was under 100 nM.
For the compound `O=C(NCC1CCCCC1)c1cn(CCC(F)Cn2cc(C(=O)NCc3cc(C(F)(F)F)ccn3)nn2)nn1` (centres unmarked) [Example 456, 1-(4-{4-[(cyclohexylmethyl)carbamoyl]-1H-1,2,3-triazol-1-yl}-2-fluorobutyl)-N-{[4-(trifluoromethyl)pyridin-2-yl]methyl}-1H-1,2,3-triazole-4-carboxamide], the EC50 in test [1] is under 100 nM. For the same compound, the IC50 in test [2] is under 100 nM.
Regarding `O=C(NCC1CCOCC1)c1cn(CCC(F)Cn2cc(C(=O)NCc3cc(C(F)(F)F)ccn3)nn2)nn1` (centres unmarked) [Example 457, 1-(2-fluoro-4-{4-[(oxan-4-ylmethyl)carbamoyl]-1H-1,2,3-triazol-1-yl}butyl)-N-{[4-(trifluoromethyl)pyridin-2-yl]methyl}-1H-1,2,3-triazole-4-carboxamide], the EC50 in test [1] lay in the range of 500 to 5000 nM. The IC50 in test [2] lay in the range of 500 to 5000 nM.
Consider `C[C@H](NC(=O)c1cn(CCC(F)Cn2cc(C(=O)NCc3cc(C(F)(F)F)ccn3)nn2)nn1)c1ccccc1` (stereo partly drawn) [Example 458, 1-[2-fluoro-4-(4-{[(1S)-1-phenylethyl]carbamoyl}-1H-1,2,3-triazol-1-yl)butyl]-N-{[4-(trifluoromethyl)pyridin-2-yl]methyl}-1H-1,2,3-triazole-4-carboxamide], for which the EC50 in test [1] was in the range of 100 to 500 nM. Moreover, the IC50 in test [2] lay within 100 to 500 nM.
For the compound `O=C(NCc1ccc(F)cc1)c1cn(CCC(F)Cn2cc(C(=O)NCc3cc(C(F)(F)F)ccn3)nn2)nn1` (centres unmarked) [Example 459, 1-[2-fluoro-4-(4-{[(4-fluorophenyl)methyl]carbamoyl}-1H-1,2,3-triazol-1-yl)butyl]-N-{[4-(trifluoromethyl)pyridin-2-yl]methyl}-1H-1,2,3-triazole-4-carboxamide], the EC50 in test [1] was in the range of 100 to 500 nM. Also, the IC50 in test [2] is under 100 nM.
For the compound `O=C(NCc1ccccc1)c1cn(CCC(F)Cn2cc(C(=O)NCc3cc(C(F)(F)F)ccn3)nn2)nn1` (centres unmarked) [Example 460, 1-{4-[4-(benzylcarbamoyl)-1H-1,2,3-triazol-1-yl]-2-fluorobutyl}-N-{[4-(trifluoromethyl)pyridin-2-yl]methyl}-1H-1,2,3-triazole-4-carboxamide], in test [1], the EC50 was in the range of 100 to 500 nM. In test [2], the IC50 lay within 100 to 500 nM.
Take `O=C(NCc1cccc(OC(F)(F)F)c1)c1cn(CCC(F)Cn2cc(C(=O)N[C@@H](CO)c3ccccc3)nn2)nn1` (stereo partly drawn) [Example 461, 1-{2-fluoro-4-[4-({[3-(trifluoromethoxy)phenyl]methyl}carbamoyl)-1H-1,2,3-triazol-1-yl]butyl}-N-[(1R)-2-hydroxy-1-phenylethyl]-1H-1,2,3-triazole-4-carboxamide]: the EC50 in test [1] was 500 to 5000 nM. Also, the IC50 in test [2] lay in the range of 100 to 500 nM.
In the same order, the values of `O=C(NCc1cccc(OC(F)(F)F)c1)c1cn(CCC(F)Cn2cc(C(=O)N[C@H](CO)c3ccccc3)nn2)nn1` (stereo partly drawn) [Example 462, 1-{2-fluoro-4-[4-({[3-(trifluoromethoxy)phenyl]methyl}carbamoyl)-1H-1,2,3-triazol-1-yl]butyl}-N-[(1S)-2-hydroxy-1-phenylethyl]-1H-1,2,3-triazole-4-carboxamide] are 100 to 500 nM and under 100 nM.
In the same order, the values of `O=C(NCc1cccc(OC(F)(F)F)c1)c1cn(CC(F)CCc2nnc(C(=O)NCc3cc(C(F)(F)F)ccn3)s2)nn1` (centres unmarked) [Example 463, 5-{3-fluoro-4-[4-({[3-(trifluoromethoxy)phenyl]methyl}carbamoyl)-1H-1,2,3-triazol-1-yl]butyl}-N-{[4-(trifluoromethyl)pyridin-2-yl]methyl}-1,3,4-thiadiazole-2-carboxamide] are under 100 nM and under 100 nM.
`O=C(NCc1cccc(OC(F)(F)F)c1)c1cn(CC(F)CCc2nnc(C(=O)NCc3ccc(C(F)(F)F)cn3)s2)nn1` (centres unmarked) [Example 464, 5-{3-fluoro-4-[4-({[3-(trifluoromethoxy)phenyl]methyl}carbamoyl)-1H-1,2,3-triazol-1-yl]butyl}-N-{[5-(trifluoromethyl)pyridin-2-yl]methyl}-1,3,4-thiadiazole-2-carboxamide]: the EC50 in test [1] was under 100 nM. In test [2], the IC50 is under 100 nM.
For the compound `O=C(NCc1cc(OC(F)(F)F)ccc1F)c1cn(CC(F)CCc2nnc(C(=O)NCc3ccc(C(F)(F)F)cn3)s2)nn1` (centres unmarked) [Example 465, 5-{3-fluoro-4-[4-({[2-fluoro-5-(trifluoromethoxy)phenyl]methyl}carbamoyl)-1H-1,2,3-triazol-1-yl]butyl}-N-{[5-(trifluoromethyl)pyridin-2-yl]methyl}-1,3,4-thiadiazole-2-carboxamide], the EC50 in test [1] was under 100 nM. In test [2], the IC50 is under 100 nM.
`O=C(NCc1cccc(F)c1)c1cn(CCC(F)Cn2cc(C(=O)NCc3cc(C(F)(F)F)ccn3)nn2)nn1` (centres unmarked) [Example 466, 1-[2-fluoro-4-(4-{[(3-fluorophenyl)methyl]carbamoyl}-1H-1,2,3-triazol-1-yl)butyl]-N-{[4-(trifluoromethyl)pyridin-2-yl]methyl}-1H-1,2,3-triazole-4-carboxamide]: the EC50 in test [1] was under 100 nM. Besides, the IC50 in test [2] is under 100 nM.
Consider `O=C(NCc1cc(C(F)(F)F)ccn1)c1cn(CC(F)CCn2cc(C(=O)N[C@@H](CO)c3ccccc3)nn2)nn1` (stereo partly drawn) [Example 467, 1-[2-fluoro-4-(4-{[(1R)-2-hydroxy-1-phenylethyl]carbamoyl}-1H-1,2,3-triazol-1-yl)butyl]-N-{[4-(trifluoromethyl)pyridin-2-yl]methyl}-1H-1,2,3-triazole-4-carboxamide], for which the EC50 in test [1] was in the range of 100 to 500 nM. In addition, the IC50 in test [2] fell in the range of 100 to 500 nM.
Compound `COc1cccc(CNC(=O)c2cn(CCC(F)Cn3cc(C(=O)NCc4cc(C(F)(F)F)ccn4)nn3)nn2)c1` (centres unmarked) [Example 468, 1-[2-fluoro-4-(4-{[(3-methoxyphenyl)methyl]carbamoyl}-1H-1,2,3-triazol-1-yl)butyl]-N-{[4-(trifluoromethyl)pyridin-2-yl]methyl}-1H-1,2,3-triazole-4-carboxamide] yielded an EC50 in test [1] of under 100 nM. The IC50 in test [2] is under 100 nM.
The compound `O=C(NCc1ccc(OC(F)(F)F)cc1)c1cn(CCC(F)Cn2cc(C(=O)NCc3cc(C(F)(F)F)ccn3)nn2)nn1` (centres unmarked) [Example 469, 1-{2-fluoro-4-[4-({[4-(trifluoromethoxy)phenyl]methyl}carbamoyl)-1H-1,2,3-triazol-1-yl]butyl}-N-{[4-(trifluoromethyl)pyridin-2-yl]methyl}-1H-1,2,3-triazole-4-carboxamide] showed an EC50 in test [1] of under 100 nM. The IC50 in test [2] is under 100 nM.
In turn, `O=C(NCc1cc(C(F)(F)F)ccn1)c1cn(CCC(F)Cn2cc(C(=O)NCc3cc(C(F)(F)F)ccn3)nn2)nn1` (centres unmarked) [Example 470, 1-{2-fluoro-4-[4-({[4-(trifluoromethyl)pyridin-2-yl]methyl}carbamoyl)-1H-1,2,3-triazol-1-yl]butyl}-N-{[4-(trifluoromethyl)pyridin-2-yl]methyl}-1H-1,2,3-triazole-4-carboxamide] displayed an EC50 in test [1] of under 100 nM. The IC50 in test [2] is under 100 nM.
In test [1], `O=C(NCC1CCCC1)c1cn(CCC(F)Cn2cc(C(=O)NCc3cc(C(F)(F)F)ccn3)nn2)nn1` (centres unmarked) [Example 471, 1-(4-{4-[(cyclopentylmethyl)carbamoyl]-1H-1,2,3-triazol-1-yl}-2-fluorobutyl)-N-{[4-(trifluoromethyl)pyridin-2-yl]methyl}-1H-1,2,3-triazole-4-carboxamide] yielded an EC50 of 100 to 500 nM. In test [2], the IC50 is under 100 nM.
Taken in the same sequence, the figures for `O=C(NCC1CCCCO1)c1cn(CCC(F)Cn2cc(C(=O)NCc3cc(C(F)(F)F)ccn3)nn2)nn1` (centres unmarked) [Example 472, 1-(2-fluoro-4-{4-[(oxan-2-ylmethyl)carbamoyl]-1H-1,2,3-triazol-1-yl}butyl)-N-{[4-(trifluoromethyl)pyridin-2-yl]methyl}-1H-1,2,3-triazole-4-carboxamide] were 100 to 500 nM and 100 to 500 nM.
Taken in the same sequence, the figures for `O=C(NCC1CCCOC1)c1cn(CCC(F)Cn2cc(C(=O)NCc3cc(C(F)(F)F)ccn3)nn2)nn1` (centres unmarked) [Example 473, 1-(2-fluoro-4-{4-[(oxan-3-ylmethyl)carbamoyl]-1H-1,2,3-triazol-1-yl}butyl)-N-{[4-(trifluoromethyl)pyridin-2-yl]methyl}-1H-1,2,3-triazole-4-carboxamide] were 100 to 500 nM and 100 to 500 nM.
In the same order, the values of `O=C(NCc1cccc(C(F)(F)F)n1)c1cn(CCC(F)Cn2cc(C(=O)NCc3cc(C(F)(F)F)ccn3)nn2)nn1` (centres unmarked) [Example 474, 1-{2-fluoro-4-[4-({[6-(trifluoromethyl)pyridin-2-yl]methyl}carbamoyl)-1H-1,2,3-triazol-1-yl]butyl}-N-{[4-(trifluoromethyl)pyridin-2-yl]methyl}-1H-1,2,3-triazole-4-carboxamide] are under 100 nM and under 100 nM.
In test [1], `CNC(=O)c1cn(CCC(F)Cn2cc(C(=O)NCc3cc(C(F)(F)F)ccn3)nn2)nn1` (centres unmarked) [Example 475, 1-(3-fluoro-4-(4-((4-(trifluoromethyl)pyridin-2-yl)methylcarbamoyl)-1H-1,2,3-triazol-1-yl)butyl)-N-methyl-1H-1,2,3-triazole-4-carboxamide] showed an EC50 of 100 to 500 nM. In addition, the IC50 in test [2] is 100 to 500 nM.
In turn, `O=C(NCc1cncc(C(F)(F)F)c1)c1cn(CCC(F)Cn2cc(C(=O)NCc3cc(C(F)(F)F)ccn3)nn2)nn1` (centres unmarked) [Example 476, 1-{2-fluoro-4-[4-({[5-(trifluoromethyl)pyridin-3-yl]methyl}carbamoyl)-1H-1,2,3-triazol-1-yl]butyl}-N-{[4-(trifluoromethyl)pyridin-2-yl]methyl}-1H-1,2,3-triazole-4-carboxamide] displayed an EC50 in test [1] of under 100 nM. Also, in test [2], the IC50 is under 100 nM.
